Active and inactive are the calls of the source.
Tests used:
Caspase-6 = molecular target: T1, Caspase-6 (Homo sapiens, UniProt P55212); experiment: inhibition of CASP6 peptide cleavage – biochemical, VEID-R110 fluorescence, cherry-pick, dose response (AID 720632)
T1 sequence (P55212 whole entry): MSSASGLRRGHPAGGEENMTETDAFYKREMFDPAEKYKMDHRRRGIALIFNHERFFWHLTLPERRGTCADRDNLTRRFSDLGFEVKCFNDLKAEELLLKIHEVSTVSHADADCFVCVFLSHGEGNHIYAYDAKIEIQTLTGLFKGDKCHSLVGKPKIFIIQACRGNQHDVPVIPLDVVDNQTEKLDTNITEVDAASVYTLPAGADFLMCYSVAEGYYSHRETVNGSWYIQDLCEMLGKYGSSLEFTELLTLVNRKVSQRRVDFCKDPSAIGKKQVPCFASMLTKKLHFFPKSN

BJ [1] = experiment: BJ-TERT fibroblast viability loss – cell-based, RAS-independent, luminescence, dose response (AID 1933); assay type: functional; conditions: Homo sapiens
BJ [2] = experiment: BJ-TERT-LT-ST fibroblast viability loss – cell-based, RAS-independent, luminescence, dose response (AID 1935); assay type: functional; conditions: Homo sapiens;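 also: BJ fibroblasts immortalized with TERT plus LT and ST oncogenes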
BJ [3] = experiment: cells; assay type: functional, cell-based; conditions: Homo sapiens
Coagulation factor XII = molecular target: T2, Coagulation factor XII (Homo sapiens, UniProt P00748); assay type: functional;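 also: activated factor XIIa alpha cleaving a fluorogenic AMC peptide substrate; inhibitor potency from loss of enzyme activity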
T2 sequence (P00748 whole entry): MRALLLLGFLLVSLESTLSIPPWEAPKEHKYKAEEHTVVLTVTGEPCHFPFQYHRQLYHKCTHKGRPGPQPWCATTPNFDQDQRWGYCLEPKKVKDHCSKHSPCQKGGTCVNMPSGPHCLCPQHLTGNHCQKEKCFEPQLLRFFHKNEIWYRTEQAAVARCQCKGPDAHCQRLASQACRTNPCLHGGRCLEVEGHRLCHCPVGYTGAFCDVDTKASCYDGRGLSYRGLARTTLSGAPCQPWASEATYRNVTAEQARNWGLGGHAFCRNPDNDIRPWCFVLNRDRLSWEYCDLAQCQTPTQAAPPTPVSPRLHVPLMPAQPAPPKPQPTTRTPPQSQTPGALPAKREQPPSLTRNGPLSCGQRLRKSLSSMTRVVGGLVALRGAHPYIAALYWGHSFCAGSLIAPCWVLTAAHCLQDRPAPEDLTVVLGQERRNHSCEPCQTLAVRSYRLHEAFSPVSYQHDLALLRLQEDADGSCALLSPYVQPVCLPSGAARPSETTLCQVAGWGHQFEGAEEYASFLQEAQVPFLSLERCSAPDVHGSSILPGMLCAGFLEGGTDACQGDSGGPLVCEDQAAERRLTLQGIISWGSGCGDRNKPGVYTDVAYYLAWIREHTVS

[4] = fluconazole-exposed Candida albicans growth modulators – fluorescence, retest, confirmation (AID 2467); assay type: functional, cell-based
[5] = NIH-3T3 fibroblast cytotoxicity, dose response, cytotoxicity control, cell-based, fluorescence, Alamar Blue, secondary assay (AID 2327); assay type: functional;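 also: NIH-3T3 mouse fibroblasts cultured with fluconazole at 8 µg/mL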
[6] = DRD fibroblast viability loss – cell-based, non-viral oncogenic, luminescence, dose response (AID 1934); assay type: functional; conditions: Homo sapiens
[7] = viability loss in THP-1 monocytes – THP-1 cells, cytotoxicity control for Vif-APOBEC3G degradation inhibitor project, dose response (AID 1117359); assay type: functional; conditions: THP-1
Protein Tat = molecular target: T3, Protein Tat (Human immunodeficiency virus type 1 group M subtype B (isolate HXB2)(HIV-1), UniProt P04608); assay type: functional;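 also: tat binding to TAR RNA read out by fluorescence polarization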
T3 sequence (P04608 whole entry): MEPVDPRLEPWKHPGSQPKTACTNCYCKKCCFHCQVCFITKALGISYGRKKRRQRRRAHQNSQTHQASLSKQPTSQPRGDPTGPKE

H9c2 = experiment: cells; assay type: functional, cell-based; conditions: Rattus norvegicus, H9c2, Myocardium;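 also: confirmatory concentration-response retest of ultra-high-throughput screening hits for modulation of myocardial damage; cell death induced by hydrogen peroxide oxidative stress; compound pretreatment for 60 min then peroxide exposure for 2 h; potency is for protecting the cells against peroxide damage rather than for killing them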
[8] = molecular target: Heat shock protein HSP 90-alpha (Homo sapiens, UniProt P07900); assay type: functional, organism-based
Aminopeptidase N = molecular target: T4, Aminopeptidase N (Plasmodium falciparum FcB1/Columbia, UniProt O96935); experiment: malaria alanyl aminopeptidase activity blockers – biochemical, fluorogenic H-Leu-NHMec substrate, 1536-well (AID 1445); set-up: species or system Plasmodium falciparum 3D7, 3D7
T4 sequence (O96935 whole entry): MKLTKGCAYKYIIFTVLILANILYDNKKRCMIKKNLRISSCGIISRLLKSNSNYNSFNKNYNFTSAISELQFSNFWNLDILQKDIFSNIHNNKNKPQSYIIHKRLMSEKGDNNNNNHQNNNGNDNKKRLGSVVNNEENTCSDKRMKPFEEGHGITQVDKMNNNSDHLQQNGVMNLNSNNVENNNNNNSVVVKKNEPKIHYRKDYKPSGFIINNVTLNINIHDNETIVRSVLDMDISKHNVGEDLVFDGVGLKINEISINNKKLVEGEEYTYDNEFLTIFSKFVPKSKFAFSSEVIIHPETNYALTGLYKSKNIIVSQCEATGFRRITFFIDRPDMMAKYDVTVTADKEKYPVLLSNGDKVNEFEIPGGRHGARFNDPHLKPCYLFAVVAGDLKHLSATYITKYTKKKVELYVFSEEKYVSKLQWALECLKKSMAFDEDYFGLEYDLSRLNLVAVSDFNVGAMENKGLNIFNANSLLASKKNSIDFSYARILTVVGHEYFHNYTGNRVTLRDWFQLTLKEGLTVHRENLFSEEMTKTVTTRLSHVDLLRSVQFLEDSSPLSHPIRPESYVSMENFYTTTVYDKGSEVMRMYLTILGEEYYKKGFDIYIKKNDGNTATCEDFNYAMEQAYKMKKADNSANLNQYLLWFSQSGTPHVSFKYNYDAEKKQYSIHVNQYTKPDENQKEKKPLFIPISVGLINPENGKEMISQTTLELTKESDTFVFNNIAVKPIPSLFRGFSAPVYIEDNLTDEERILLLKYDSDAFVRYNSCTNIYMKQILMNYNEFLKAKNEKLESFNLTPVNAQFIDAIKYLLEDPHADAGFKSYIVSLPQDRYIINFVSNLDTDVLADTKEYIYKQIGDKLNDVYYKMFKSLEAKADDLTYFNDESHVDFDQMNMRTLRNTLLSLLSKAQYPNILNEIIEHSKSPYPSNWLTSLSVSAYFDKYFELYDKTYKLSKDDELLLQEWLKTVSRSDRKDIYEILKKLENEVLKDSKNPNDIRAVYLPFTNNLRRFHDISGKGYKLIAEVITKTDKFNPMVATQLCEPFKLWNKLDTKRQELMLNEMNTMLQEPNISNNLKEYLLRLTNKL

[9] = HepG2 cell cytotoxicity, dose response, cytotoxicity control for non-replicating M. tuberculosis project (AID 489018); assay type: functional; conditions: Mycobacterium tuberculosis
[10] = THP-1 cell cytotoxicity, dose response, cytotoxicity control for non-replicating M. tuberculosis project (AID 489025); assay type: functional
[11] = nonselective StAR promoter luciferase inhibitors – cell-based, luminescence, luciferase reporter, counter-screen for LRH-1 inverse agonist project, dose response (AID 651969); assay type: functional
Steroidogenic factor 1 = Steroidogenic factor 1 (Homo sapiens, UniProt Q13285); experiment: Counterscreen for inverse agonists of the liver receptor homolog-1 (LRH-1; NR5A2): Luminescence-based cell-based high throughput dose response assay to identify inverse agonists of the Steroidogenic Factor 1 Nuclear Receptor (SF1; NR5A1).; assay type: functional
[12] = molecular target: Nuclear receptor subfamily 5 group A member 2 (Homo sapiens, UniProt O00482); assay type: functional, cell-based;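 also: HEK293T cells transfected with LRH-1 and a StAR promoter luciferase reporter; potency for inhibitors that lower LRH-1 driven reporter light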
[13] = molecular target: T5, Corticotropin-releasing factor receptor 2/Corticotropin-releasing factor-binding protein (Homo sapiens, UniProt P24387+Q13324); experiment: activators of CRF receptor 2 with binding protein – uHTS hits, confirmation (AID 602473); assay type: functional; conditions: read-out: EC50_Mean
T5 sequence (Q13324 whole entry): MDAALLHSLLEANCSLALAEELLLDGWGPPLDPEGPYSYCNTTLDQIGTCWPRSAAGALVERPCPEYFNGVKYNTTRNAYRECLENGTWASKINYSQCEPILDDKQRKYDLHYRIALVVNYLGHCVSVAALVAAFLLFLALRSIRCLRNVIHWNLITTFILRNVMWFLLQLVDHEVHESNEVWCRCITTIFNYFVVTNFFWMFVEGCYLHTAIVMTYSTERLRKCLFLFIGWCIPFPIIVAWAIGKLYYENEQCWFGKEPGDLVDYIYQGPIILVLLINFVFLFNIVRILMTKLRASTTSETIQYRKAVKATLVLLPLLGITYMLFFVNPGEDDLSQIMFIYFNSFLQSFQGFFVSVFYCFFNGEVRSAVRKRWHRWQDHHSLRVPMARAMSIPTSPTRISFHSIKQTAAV
T5 sequence (P24387 whole entry): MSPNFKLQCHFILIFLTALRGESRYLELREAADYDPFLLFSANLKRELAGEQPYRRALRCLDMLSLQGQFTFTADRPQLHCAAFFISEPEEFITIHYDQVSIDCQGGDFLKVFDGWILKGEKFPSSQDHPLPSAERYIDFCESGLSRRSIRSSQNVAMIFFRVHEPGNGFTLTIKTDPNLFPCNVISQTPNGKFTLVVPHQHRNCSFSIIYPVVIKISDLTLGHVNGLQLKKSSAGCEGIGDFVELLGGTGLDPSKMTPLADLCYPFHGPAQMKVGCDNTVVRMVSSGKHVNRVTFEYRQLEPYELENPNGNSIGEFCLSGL

Vero = experiment: cells; assay type: functional; conditions: Chlorocebus sabaeus

Nuclear receptor subfamily 5 group A member 2, sequence (O00482 whole entry): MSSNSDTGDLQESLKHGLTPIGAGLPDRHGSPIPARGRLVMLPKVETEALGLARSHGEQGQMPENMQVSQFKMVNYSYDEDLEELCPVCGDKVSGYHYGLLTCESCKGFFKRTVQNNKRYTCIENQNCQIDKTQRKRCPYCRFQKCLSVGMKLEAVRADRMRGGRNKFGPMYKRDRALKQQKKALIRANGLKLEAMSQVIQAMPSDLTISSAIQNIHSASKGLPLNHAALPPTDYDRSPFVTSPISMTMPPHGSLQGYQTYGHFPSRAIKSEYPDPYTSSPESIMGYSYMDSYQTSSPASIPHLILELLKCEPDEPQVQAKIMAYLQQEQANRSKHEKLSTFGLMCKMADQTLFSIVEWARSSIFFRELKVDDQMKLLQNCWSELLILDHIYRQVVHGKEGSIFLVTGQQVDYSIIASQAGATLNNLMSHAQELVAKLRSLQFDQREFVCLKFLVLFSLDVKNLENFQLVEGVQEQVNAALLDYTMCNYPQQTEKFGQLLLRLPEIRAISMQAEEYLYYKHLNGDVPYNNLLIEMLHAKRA
Steroidogenic factor 1, sequence (Q13285 whole entry): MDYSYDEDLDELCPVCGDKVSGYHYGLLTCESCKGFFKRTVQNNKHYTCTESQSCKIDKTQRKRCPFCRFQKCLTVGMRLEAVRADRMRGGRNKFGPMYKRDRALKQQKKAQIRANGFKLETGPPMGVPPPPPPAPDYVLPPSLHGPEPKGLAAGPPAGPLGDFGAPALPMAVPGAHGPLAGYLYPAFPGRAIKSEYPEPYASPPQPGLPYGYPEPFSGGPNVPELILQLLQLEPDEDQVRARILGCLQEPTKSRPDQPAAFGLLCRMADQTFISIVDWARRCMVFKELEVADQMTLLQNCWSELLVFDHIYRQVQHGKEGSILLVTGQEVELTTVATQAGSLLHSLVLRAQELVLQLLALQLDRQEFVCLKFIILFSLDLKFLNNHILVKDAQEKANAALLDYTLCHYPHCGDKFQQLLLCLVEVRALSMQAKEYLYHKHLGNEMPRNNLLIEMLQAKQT

Question: With CC(NC(=O)CN1c2cccc3cccc(c23)S1(=O)=O)c1ccc(S(N)(=O)=O)cc1 (stereo unspecified) as the compound, how does the AC50 (Caspase-6) read?
Answer: 22.4 µM (active)

Question: For CCOc1ccc(-c2c(C)[n+](-c3ccc(OCC)cc3)c3n2CCCCC3)cc1.[O-][Cl+3]([O-])([O-])[O-], which EC50 (BJ [1]) is on record?
Answer: 9.44 µM (inconclusive)

Question: And the EC50 (BJ [2])?
Answer: 17.1 µM (active)

Question: And the EC50 (BJ [3])?
Answer: 8.54 µM (active)

Question: What about the IC50 (Coagulation factor XII) of the same compound?
Answer: > 50 µM (inactive)

Question: What about the EC50 [4] of the same compound?
Answer: 2.36 µM (active)

Question: What about the EC50 [5] of the same compound?
Answer: 39.3 µM (active)

Question: And the EC50 [6]?
Answer: 13.5 µM (inconclusive)

Question: Which CC50 [7] does the source give for CCC(c1nnnn1Cc1ccco1)N(Cc1ccccc1OC)Cc1cc2cc(C)ccc2nc1O (stereo unspecified) here?
Answer: > 40 µM (active)

Question: What about the IC50 (Protein Tat) of the same compound?
Answer: > 100 µM (inconclusive)

Question: With O=C(Nc1nc(-c2ccccn2)cs1)c1ccc(-c2ccccc2F)o1 as the compound, how does the IC50 (H9c2) read?
Answer: > 79 µM (inactive)

Question: And the AC50 [8]?
Answer: 6.54 µM (active)

Question: With Nc1nnc(SCC(=O)Nc2ccccc2-c2ccccc2)[nH]1 as the compound, how does the IC50 (Aminopeptidase N) read?
Answer: 51.2 µM (active)

Question: Which CC50 [9] does the source give for COc1ccc2cc(C(=O)NCc3ccccc3CN3CCCC3)ccc2c1 here?
Answer: > 20 µM (active)

Question: And the CC50 [10]?
Answer: > 40 µM (active)

Question: Which IC50 [11] does the source give for O=C(NCc1ccco1)c1nn(-c2ccccc2)c(=O)c2ccccc12 here?
Answer: 12 µM (inactive)

Question: What about the IC50 (Steroidogenic factor 1) of the same compound?
Answer: 3.09 µM (active)

Question: What about the IC50 [12] of the same compound?
Answer: 35.9 µM (inactive)

Question: For COCCOC(=O)/C(=C/c1ccc(OC(=O)c2ccccc2)cc1)C(C)=O, which EC50 [13] is on record?
Answer: > 53 µM (inactive)

Question: And the AC50 [8]?
Answer: 3.02 µM (active)

Question: With Cc1cc(C)c2c(O)nc(SCC(=O)Nc3ccc(Br)cc3)nc2n1 as the compound, how does the IC50 [11] read?
Answer: 35.9 µM (inactive)

Question: What about the IC50 (Steroidogenic factor 1) of the same compound?
Answer: 33.4 µM (inactive)

Question: And the IC50 [12]?
Answer: 28.2 µM (inactive)

Question: Which IC50 (Aminopeptidase N) does the source give for CCOC(=O)CC1C(=O)NCCN1c1nc2ccc(C)cn2c(=O)c1/C=C1\SC(=S)N(CC(C)C)C1=O (stereo unspecified) here?
Answer: 35.7 µM (active)

Question: For CN(C)C=O.NS(=O)(=O)c1cccc(NC(=O)CSc2nc(O)c3c(C(F)(F)F)cc(-c4cccs4)nc3n2)c1, which IC50 (Aminopeptidase N) is on record?
Answer: 30.5 µM (active)

Question: For CCN(CC(=O)NC(C)(C)C)C(=O)CCl, which CC50 (Vero) is on record?
Answer: 22.2 µM (active)

— ChEMBL document CHEMBL1201862, “PubChem BioAssay data set” (2004)
